Test systems include K-562 leukemia; RPMI-8226 leukemia; CCRF-CEM leukemia; MDA-MB-231 breast; NCI-H23 lung; KM12 colon; SNB-75 CNS; IGROV1 ovarian; HOP-62 NSCLC; MALME-3M melanoma.
Test in all cases: growth of human tumour cells (NCI), 48 h

SMILES strings stand for the structures.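 Protocol summary: plate cells (96-well), add compound at 5 concentrations, incubate 48 h, interpolate endpoints linearly. At the GI50, growth is halved. Definition used: TGI = concentration required for complete inhibition of growth.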

As for `c1ncn(C23C4C5C6C4C2C6C53)n1` (stereo not drawn), the TGI in the assay on K-562 leukemia, in the assay on RPMI-8226 leukemia, with CCRF-CEM leukemia, in the assay on MDA-MB-231 breast, in the assay on NCI-H23 lung and in the assay with KM12 colon was greater than 100 µM in each case. The TGI with SNB-75 CNS, with IGROV1 ovarian and in the assay with HOP-62 NSCLC was greater than 100 µM throughout.
With `COc1cc(C2c3c(ccc4ccccc34)C(=O)C3CCC(=O)N32)cc(OC)c1OC` (stereo not drawn), the TGI in the assay with K-562 leukemia, in the assay on RPMI-8226 leukemia, with CCRF-CEM leukemia, in the assay with MDA-MB-231 breast, with NCI-H23 lung and in the assay on KM12 colon was greater than 50 µM throughout. The TGI in the assay with SNB-75 CNS, in the assay on IGROV1 ovarian and in the assay on HOP-62 NSCLC was greater than 50 µM throughout.
Regarding `O=C(O)CC(Cc1ccccc1Cl)C(=O)O` (stereo not drawn), the TGI in the assay on K-562 leukemia, in the assay on RPMI-8226 leukemia, in the assay on CCRF-CEM leukemia, in the assay with MDA-MB-231 breast, with NCI-H23 lung and in the assay on KM12 colon was greater than 100 µM throughout. Besides, the TGI in the assay on IGROV1 ovarian, in the assay on HOP-62 NSCLC and in the assay on MALME-3M melanoma was greater than 100 µM in each case.
Regarding `CCO/C(=N/S(=O)(=O)C(F)(F)F)N(C(C)C)C(C)C`, the TGI in the assay with RPMI-8226 leukemia, with CCRF-CEM leukemia, in the assay with MDA-MB-231 breast, in the assay with NCI-H23 lung, with KM12 colon and in the assay with IGROV1 ovarian was greater than 100 µM in each case. The same molecule gave a TGI with MALME-3M melanoma greater than 100 µM.
As to `CC(=O)NC1C(OCc2ccccc2)OC(CO)C(O)C1OCC(=O)N1CCCC1C(=O)N[C@@H](CCC(=O)NCCCCNc1c2ccccc2nc2cccc([N+](=O)[O-])c12)C(N)=O` (stereo partly drawn), the TGI was greater than 100 µM in the assay on K-562 leukemia; greater than 100 µM with RPMI-8226 leukemia; 40.8 µM in the assay on NCI-H23 lung; greater than 100 µM with KM12 colon; 65.8 µM with SNB-75 CNS; 50.6 µM with IGROV1 ovarian. Also, the TGI in the assay on HOP-62 NSCLC and with MALME-3M melanoma was greater than 100 µM in each case.
As for `Cc1cc([NH-])c([NH-])cc1C.[Cl][Pt+2][Cl]`, the TGI is greater than 41.5 µM with K-562 leukemia; 60.2 µM with RPMI-8226 leukemia; 61.5 µM in the assay with CCRF-CEM leukemia; 37 µM in the assay on NCI-H23 lung; greater than 100 µM with KM12 colon; greater than 100 µM in the assay on SNB-75 CNS. In addition, the TGI in the assay with IGROV1 ovarian is 45.4 µM; in the assay with HOP-62 NSCLC, greater than 77 µM; in the assay on MALME-3M melanoma, 36.6 µM. The GI50 with RPMI-8226 leukemia was 9.49 µM; in the assay with CCRF-CEM leukemia it was 1.95 µM; with NCI-H23 lung, 14.2 µM; with KM12 colon, 24.5 µM; with SNB-75 CNS it was 39.2 µM; with IGROV1 ovarian, 15.2 µM. Also, the GI50 is greater than 42800 nM in the assay on HOP-62 NSCLC and 18 µM with MALME-3M melanoma.
In the case of `CCCCN(CCCC)Cc1cc(Nc2ccnc3cc(Cl)ccc23)ccc1O`, the GI50 in the assay with K-562 leukemia is 2300 nM; with RPMI-8226 leukemia, 6.6 µM; in the assay with CCRF-CEM leukemia it was 17.5 µM; with NCI-H23 lung, 8.23 µM; in the assay with KM12 colon it was greater than 100 µM; in the assay with SNB-75 CNS it was 2.83 µM. The GI50 with IGROV1 ovarian was 7.36 µM; in the assay on HOP-62 NSCLC it was 2540 nM; with MALME-3M melanoma, 24.5 µM. Moreover, the TGI was greater than 100 µM in the assay with K-562 leukemia; greater than 100 µM in the assay on RPMI-8226 leukemia; greater than 100 µM in the assay with CCRF-CEM leukemia; greater than 100 µM with NCI-H23 lung; greater than 100 µM in the assay with KM12 colon; 13.6 µM in the assay on SNB-75 CNS. Moreover, the TGI in the assay on IGROV1 ovarian, in the assay on HOP-62 NSCLC and in the assay on MALME-3M melanoma was greater than 100 µM throughout.
With `C1=C(c2ccccc2)SC(N2CCCCC2)S1` (stereo not drawn), the TGI in the assay with K-562 leukemia, with RPMI-8226 leukemia, with CCRF-CEM leukemia, with NCI-H23 lung, in the assay on KM12 colon and in the assay with SNB-75 CNS was greater than 100 µM each time. In addition, the TGI in the assay on IGROV1 ovarian, with HOP-62 NSCLC and in the assay on MALME-3M melanoma was greater than 100 µM in each case.
In the case of `CCOC(=O)C(C#N)(Cc1c[nH]c2ccccc12)NC(C)=O` (stereo not drawn), the TGI in the assay with K-562 leukemia, with RPMI-8226 leukemia, in the assay with CCRF-CEM leukemia, in the assay on NCI-H23 lung, with KM12 colon and with SNB-75 CNS was greater than 100 µM throughout. The TGI in the assay with IGROV1 ovarian, with HOP-62 NSCLC and in the assay with MALME-3M melanoma was greater than 100 µM throughout.
Turning to `C=CCC1(C#N)C(=S)NC2=C(C(=O)CC(C)(C)C2)C1c1ccccc1` (stereo not drawn), the TGI in the assay with K-562 leukemia, with RPMI-8226 leukemia, with CCRF-CEM leukemia, in the assay with MDA-MB-231 breast, with NCI-H23 lung and in the assay with KM12 colon was greater than 100 µM in each case. The TGI in the assay with SNB-75 CNS was 74.8 µM; in the assay on IGROV1 ovarian, greater than 100 µM.
Consider `O=C1c2cccc([N+](=O)[O-])c2C(=O)N1Cc1ccccc1`, for which the TGI with K-562 leukemia, with RPMI-8226 leukemia, in the assay with CCRF-CEM leukemia, in the assay with MDA-MB-231 breast, in the assay on NCI-H23 lung and in the assay on KM12 colon was greater than 100 µM each time. Moreover, the TGI with SNB-75 CNS, in the assay with IGROV1 ovarian and in the assay on HOP-62 NSCLC was greater than 100 µM in each case.
`N=C1C(=N)c2ccccc2-c2ccccc21.[Cl-].[Ru+2].c1ccc(-c2ccccn2)nc1.c1ccc(-c2ccccn2)nc1`: the TGI with K-562 leukemia, in the assay with CCRF-CEM leukemia, in the assay with NCI-H23 lung, in the assay with KM12 colon, in the assay on SNB-75 CNS and in the assay with IGROV1 ovarian was greater than 100 µM in each case. The TGI in the assay with HOP-62 NSCLC and with MALME-3M melanoma was greater than 100 µM each time.
With `Cc1ccc2nc(SCC(=O)N=Nc3c(O)[nH]c4ccccc34)n(-c3ccccc3)c(=O)c2c1`, the TGI worked out at 61.9 µM with K-562 leukemia; 35.7 µM with RPMI-8226 leukemia; 34.5 µM with CCRF-CEM leukemia; 22.8 µM in the assay with MDA-MB-231 breast; 33.1 µM in the assay on NCI-H23 lung; 27.9 µM in the assay on KM12 colon. Moreover, the results for the TGI in the assay with HOP-62 NSCLC and in the assay with MALME-3M melanoma were 24.6 µM and 34.7 µM, respectively.
